From ChEMBL document CHEMBL5303766, “Data for DCP probe FHT-2344” (2022)

Tests used:
[1] = molecular target: 5-hydroxytryptamine receptor 2B (Homo sapiens, UniProt P41595); assay: GPCRScan assay: inhibition of 5-HT2B; design: radioligand conc. used [nm] 1.0 – 2.0, parental cells stable HEK
[2] = molecular target: Sodium-dependent noradrenaline transporter (Homo sapiens, UniProt P23975); assay: GPCRScan assay: inhibition of NET; design: radioligand conc. used [nm] 1.3 – 5.0, parental cells stable HEK
[3] = molecular target: 5-hydroxytryptamine receptor 1E (Homo sapiens) (UniProt P28566); conditions: Compound concentration 10.0 uM
[4] = molecular target: SWI/SNF-related matrix-associated actin-dependent regulator of chromatin subfamily A member 4 (Homo sapiens, UniProt P51532); assay: Measurement of the ATPase catalytic activity using the ADP-Glo detection (SMARCA4); assay type: functional
[5] = molecular target: GABA-A receptor; anion channel (Rattus norvegicus) (UniProt O09028+P15431+P18506+P18508+P19969+P20236+P23574+P23576+P28471+P28473+P30191+P62813+P63079+P63138+Q91ZM7+Q9ES14); conditions: Compound concentration 10.0 uM
[6] = molecular target: Sigma non-opioid intracellular receptor 1 (Homo sapiens, UniProt Q99720); assay: GPCRScan assay: inhibition of Sigma 1; design: radioligand conc. used [nm] 4.0 – 5.0, parental cells HEKT
Sigma non-opioid intracellular receptor 1, sequence (Q99720 whole entry): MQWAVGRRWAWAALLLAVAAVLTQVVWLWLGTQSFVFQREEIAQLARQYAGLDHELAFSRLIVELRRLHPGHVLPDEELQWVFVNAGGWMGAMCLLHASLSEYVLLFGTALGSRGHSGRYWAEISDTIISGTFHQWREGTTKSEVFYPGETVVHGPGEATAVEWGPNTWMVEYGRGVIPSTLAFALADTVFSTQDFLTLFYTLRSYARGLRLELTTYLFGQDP

5-hydroxytryptamine receptor 2B, sequence (P41595 whole entry): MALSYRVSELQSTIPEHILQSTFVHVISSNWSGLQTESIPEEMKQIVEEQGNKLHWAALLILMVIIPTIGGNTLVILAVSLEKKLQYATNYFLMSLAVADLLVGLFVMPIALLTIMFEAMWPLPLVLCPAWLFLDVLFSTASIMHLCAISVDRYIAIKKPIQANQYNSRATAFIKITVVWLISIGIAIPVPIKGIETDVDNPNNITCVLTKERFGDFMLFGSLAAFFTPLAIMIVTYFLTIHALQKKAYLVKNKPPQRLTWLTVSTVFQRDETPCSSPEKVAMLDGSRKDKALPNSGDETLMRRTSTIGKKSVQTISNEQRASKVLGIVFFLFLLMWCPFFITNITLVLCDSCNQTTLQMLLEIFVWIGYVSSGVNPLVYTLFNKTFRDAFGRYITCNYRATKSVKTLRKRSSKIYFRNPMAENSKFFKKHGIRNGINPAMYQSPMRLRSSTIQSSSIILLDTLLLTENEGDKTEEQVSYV
Sodium-dependent noradrenaline transporter, sequence (P23975 whole entry): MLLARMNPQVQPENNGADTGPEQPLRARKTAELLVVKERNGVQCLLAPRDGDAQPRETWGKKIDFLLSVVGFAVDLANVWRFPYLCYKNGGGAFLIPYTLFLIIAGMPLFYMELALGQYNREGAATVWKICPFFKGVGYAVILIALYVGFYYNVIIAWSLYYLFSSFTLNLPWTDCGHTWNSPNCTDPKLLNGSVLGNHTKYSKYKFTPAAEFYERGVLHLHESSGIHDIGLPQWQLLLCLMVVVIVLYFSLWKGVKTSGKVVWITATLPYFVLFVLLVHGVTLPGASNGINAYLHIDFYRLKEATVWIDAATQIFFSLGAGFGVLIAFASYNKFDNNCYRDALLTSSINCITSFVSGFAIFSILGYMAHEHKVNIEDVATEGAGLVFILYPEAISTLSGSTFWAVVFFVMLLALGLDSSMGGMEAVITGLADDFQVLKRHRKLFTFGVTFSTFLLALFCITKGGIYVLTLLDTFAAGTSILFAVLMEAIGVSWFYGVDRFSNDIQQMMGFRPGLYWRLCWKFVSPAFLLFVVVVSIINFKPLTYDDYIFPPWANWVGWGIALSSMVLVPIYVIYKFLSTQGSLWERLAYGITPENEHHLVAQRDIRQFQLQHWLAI
SWI/SNF-related matrix-associated actin-dependent regulator of chromatin subfamily A member 4, sequence (P51532 whole entry): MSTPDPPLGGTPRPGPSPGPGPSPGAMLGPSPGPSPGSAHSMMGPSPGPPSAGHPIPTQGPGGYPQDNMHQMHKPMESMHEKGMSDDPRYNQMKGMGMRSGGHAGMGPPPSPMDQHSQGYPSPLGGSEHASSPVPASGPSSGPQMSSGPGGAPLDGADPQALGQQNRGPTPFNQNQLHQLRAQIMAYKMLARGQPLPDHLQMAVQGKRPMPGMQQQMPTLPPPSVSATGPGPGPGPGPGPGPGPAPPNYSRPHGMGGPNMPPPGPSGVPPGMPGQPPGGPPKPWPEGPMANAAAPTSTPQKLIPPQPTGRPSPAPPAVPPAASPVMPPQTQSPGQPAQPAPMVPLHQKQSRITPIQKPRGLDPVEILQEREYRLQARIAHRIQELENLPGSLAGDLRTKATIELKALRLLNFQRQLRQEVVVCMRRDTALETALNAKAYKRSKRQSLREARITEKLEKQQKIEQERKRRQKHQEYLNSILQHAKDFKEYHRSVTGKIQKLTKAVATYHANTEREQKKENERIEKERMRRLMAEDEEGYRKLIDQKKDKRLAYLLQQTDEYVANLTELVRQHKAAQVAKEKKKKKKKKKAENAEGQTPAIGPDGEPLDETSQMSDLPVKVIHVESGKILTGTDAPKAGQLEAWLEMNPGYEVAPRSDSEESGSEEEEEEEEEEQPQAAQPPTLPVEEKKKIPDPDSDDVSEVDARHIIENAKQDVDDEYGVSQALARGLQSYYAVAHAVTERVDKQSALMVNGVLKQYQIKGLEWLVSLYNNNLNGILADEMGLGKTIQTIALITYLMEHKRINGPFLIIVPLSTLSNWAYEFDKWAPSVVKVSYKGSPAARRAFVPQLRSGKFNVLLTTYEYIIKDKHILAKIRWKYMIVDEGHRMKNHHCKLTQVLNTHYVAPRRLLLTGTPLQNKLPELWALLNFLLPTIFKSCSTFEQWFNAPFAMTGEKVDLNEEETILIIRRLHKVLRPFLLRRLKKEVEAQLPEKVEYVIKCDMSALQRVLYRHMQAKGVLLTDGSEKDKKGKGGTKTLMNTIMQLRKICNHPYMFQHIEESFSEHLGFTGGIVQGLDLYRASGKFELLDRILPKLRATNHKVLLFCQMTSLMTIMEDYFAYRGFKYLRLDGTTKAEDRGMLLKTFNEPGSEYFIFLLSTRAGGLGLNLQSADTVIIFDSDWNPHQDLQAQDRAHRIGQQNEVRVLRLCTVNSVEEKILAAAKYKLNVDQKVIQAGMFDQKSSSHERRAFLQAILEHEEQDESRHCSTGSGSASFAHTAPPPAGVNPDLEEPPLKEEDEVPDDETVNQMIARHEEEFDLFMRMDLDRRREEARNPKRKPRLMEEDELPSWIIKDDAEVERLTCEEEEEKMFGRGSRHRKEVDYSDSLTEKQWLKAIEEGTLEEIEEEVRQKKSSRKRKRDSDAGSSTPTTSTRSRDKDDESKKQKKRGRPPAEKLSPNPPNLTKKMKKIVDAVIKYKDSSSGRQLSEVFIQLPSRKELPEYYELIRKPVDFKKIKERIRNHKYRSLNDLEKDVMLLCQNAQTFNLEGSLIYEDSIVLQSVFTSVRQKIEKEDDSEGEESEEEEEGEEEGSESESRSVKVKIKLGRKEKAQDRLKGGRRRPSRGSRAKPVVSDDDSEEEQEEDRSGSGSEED
5-hydroxytryptamine receptor 1E (Homo sapiens), sequence (P28566 whole entry): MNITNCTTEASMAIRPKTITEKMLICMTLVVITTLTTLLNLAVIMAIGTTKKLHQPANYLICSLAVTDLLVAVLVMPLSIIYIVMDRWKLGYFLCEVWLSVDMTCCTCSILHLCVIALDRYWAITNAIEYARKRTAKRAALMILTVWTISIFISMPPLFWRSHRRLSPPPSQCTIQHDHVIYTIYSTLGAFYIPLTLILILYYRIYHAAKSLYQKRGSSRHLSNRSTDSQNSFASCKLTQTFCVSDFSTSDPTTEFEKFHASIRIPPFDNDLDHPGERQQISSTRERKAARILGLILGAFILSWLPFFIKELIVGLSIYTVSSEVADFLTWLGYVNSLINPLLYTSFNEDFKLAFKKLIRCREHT

Ki ([1]; read-out: Ki): 508 nM
Ki ([1]; read-out: pKi (converted)): 490 nM
Ki [2]: 8270 nM
inhibition [3]: -0.87%
IC50 [4]: 3990 nM (not active)
inhibition [5]: 49.4%
Ki ([6]; read-out: Ki): 417 nM
Ki ([6]; read-out: pKi (converted)): 407 nM
Compound: C[C@H](NC(=O)c1cn(C2(C#N)CC2)cn1)C(=O)Nc1nc(-c2cccc(-c3ccn(C)n3)c2)cs1
